Test results from PMC1616953 (Nucleic Acids Research, 2006).

Test system: Ssα-fuc
Test: enzyme kinetics, 4-nitrophenyl substrate hydrolysis
Assay type: biochemical, Saccharolobus solfataricus
Conditions: 65°C; KM printed as identical within error for Ssα-fuc and Ssα-fuc^B

Work on `C[C@@H]1O[C@@H](Oc2ccc([N+](=O)[O-])cc2)[C@@H](O)[C@H](O)[C@@H]1O` [4NP-Fuc, 4-nitrophenyl-α-L-fucoside] yielded a Km of 28.7 ± 5 µM.
